{"source": "patent US20180085333A1", "about": "“4-PHENYLBUTYRIC ACID DERIVATIVES” (priority 2015, published 2018)", "set-up_in_all_cases": "species or system human", "key": {"ulcerative colitis": {"system": "ulcerative colitis", "assay": "In vivo activity of 4-PB against ulcerative colitis (patient case)"}, "[1]": {"system": "primary sclerosing cholangitis", "assay": "In vivo activity of 4-PB against primary sclerosing cholangitis (patient cases)", "conditions": "two female patients chosen for liver transplant, after 5 months of treatment", "protocol": "Two female patients with primary sclerosing cholangitis were treated with 4-PB. Both had recurrent fever and abdominal pains for days. Both were chosen for liver transplant."}, "psoriasis": {"system": "psoriasis", "assay": "In vivo activity of 4-PB against psoriasis (patient case)", "conditions": "received 4-PB for colon carcinoma, after four months of treatment, lasting after sessions of 4-PB", "text": "A patient with generalized psoriasis, who has been treated for years with corticoids ointments, received 4-PB for a colon carcinoma."}, "[2]": {"system": "recurrent vulvo-vaginitis", "assay": "In vivo activity of 4-PB against recurrent vulvo-vaginitis (patient cases)", "conditions": "two female patients", "protocol": "Two female patients were treated with 4-PB for other reasons (one for cancer and one for depressions)."}, "varicose veins": {"system": "varicose veins", "assay": "In vivo activity of 4-PB against varicose veins (patient case)", "protocol": "A patient with breast cancer was treated with 4-PB."}, "[3]": {"system": "major depressive disorder", "assay": "In vivo activity of 4-PB against major depressive disorder (patient cases)", "protocol": "Four female patients and one patient with major depressive disorders, some of which suffering from other diseases, were treated with 4-PB."}, "tinnitus": {"system": "tinnitus", "assay": "In vivo activity of 4-PB against tinnitus (patient cases)", "conditions": "two male patients with tinnitus lasting more than ten years, after four months of treatment", "protocol": "Two male patients with tinnitus, lasting for more than ten years, were treated with 4-PB."}}, "data": [{"smiles": "C[C@@H](NC(=O)CCCc1ccccc1)C(=O)O", "note": "[4-PB, N-(4-phenylbutanoyl)-D-alanine]", "values": [{"measurement": "response of ulcerative colitis to 4-PB", "setting": "ulcerative colitis; patient with recurrent episodes of ulcerative colitis", "result": "good response"}, {"measurement": "bowel state and symptoms (pain, diarrhea)", "setting": "ulcerative colitis; patient, after 6 months of treatment", "result": "bowels were normal and they had no pain and no diarrhea anymore"}, {"measurement": "symptoms and signs of cholangitis", "setting": "[1]", "result": "both were free of symptoms and signs of the underlying cholangitis"}, {"measurement": "remission of generalized psoriasis", "setting": "psoriasis", "result": "complete remission"}, {"measurement": "presence of vulvo-vaginitis", "setting": "[2]; after four months of treatment", "result": "both were free of vulvo-vaginitis"}, {"measurement": "remission of vulvo-vaginitis after sessions of 4-PB", "setting": "[2]; even after sessions of 4-PB", "result": "complete remission"}, {"measurement": "spider veins on both legs", "setting": "varicose veins; patient with breast cancer treated with 4-PB", "result": "remained unchanged"}, {"measurement": "enlarged (varicose) veins on both legs", "setting": "varicose veins; patient with breast cancer, during therapy with 4-PB", "result": "disappearance of the enlarged veins on both legs"}, {"measurement": "recurrence of enlarged veins", "setting": "varicose veins; patient, in the next 10 years", "result": "without a recurrence"}, {"measurement": "depressions", "setting": "[3]; four female patients and one patient with major depressive disorders", "result": "depressions disappeared in three to five months"}, {"measurement": "recurrence of depression", "setting": "[3]; four female patients and one patient, after disappearance of depressions", "result": "No recurrences have been observed"}, {"measurement": "tinnitus", "setting": "tinnitus", "result": "tinnitus has disappeared in both cases"}]}]}
